# In patent US11975041B2, “Composition comprising CHP (cyclo-his pro) for preventing, improving or treating of bone loss related disease” (NovMetaPharma Co., Ltd., priority 2017, dated 2024):
# “Also recorded” adds a separate entry of the source.
# Key:
# [1] = system: MC3T3-E1 cells; test: Alkaline phosphatase (ALP) activity / osteogenic differentiation of MC3T3-E1 osteoblasts; type: cell-based
# Method: MC3T3-E1 cells were incubated in MEMα, an ascorbic acid-free medium containing 10% FBS and 1% penicillin/streptomycin, in a 5% CO2 incubator at 37° C. To induce osteogenic differentiation, 10 mM β-glycerophosphate and […] of ascorbic acid was further added to the basal medium composition.
# 500 μl of 1×10^5 MC3T3-E1 cells were seeded into a 24-well plate and cultured for 24 hours until they reached 100% confluency. […] At this time, in the undifferentiated group, which is a negative control for differentiation, a basal medium was used instead of the differentiation medium. In the positive control treated with hPTH1-34, the medium was replaced with a differentiation medium 6 hours after the treatment. While the medium was replaced every 48 hours, each concentration of CHP and hPTH1-34 was treated for a total of 14 days.
# On day 14 of differentiation, the medium was removed, followed by washing once with PBS and fixing in 4% paraformaldehyde (PFA) at room temperature for 5 minutes. 500 μl of a 1-STEP™ NBCT/BCIP solution was added to allow a reaction to occur at room temperature for 1 hour. The reaction product was washed with distilled water, and then dried at room temperature, and the degree of coloring of the cells was observed using a microscope. Subsequently, DMSO was added to each well, followed by shaking, and then absorbance at 525 nm was measured.
# [2] = system: ovariectomized animal model; test: Osteoporosis alleviation in ovariectomized animal model, Micro CT of femur; type: in vivo, SD female mice
# Method: To determine the effect of alleviating osteoporosis in an ovariectomized animal model according to administration of CHP, a zinc salt, or a mixture thereof, 20-week-old SD female mice (SLC/Central Experimental Animal Co. Ltd., Seoul, Korea) were purchased and raised under certain conditions (temperature: 22±2° C., relative humidity: 55±10%, light/dark cycle: 12 hours). 7 mice/group were allowed to freely drink water and eat food in a cage, subjected to an adaptation period of 1 week before the experiment, and used in the experiment.
# After 6 weeks of the administration of CHP, a zinc salt, or a mixture thereof, the effect of alleviating osteoporosis in an ovariectomized animal model was analyzed using Micro CT. The bone mineral density of ovariectomized animals was measured by bone CT scanning of the 3 mm range at the front side of a 2 mm femoral growth plate using micro-CT (QuantumFX, Perkin Elmer, Massachusetts, USA). In addition, a bone volume fraction (BV/TV, %) was measured. The measurement results of the bone mineral density of the femur are illustrated in FIG. 1, and the bone volume fraction is illustrated in FIG. 2.
structure (smiles),measurement,setting,value
"O=C1N[C@@H](Cc2cnc[nH]2)C(=O)N2CCC[C@@H]12 [CHP, cyclo-hispro]",ALP activity (absorbance at 525 nm),"[1]; 2 mM CHP, day 14, compared with positive control hPTH1-34 10 nM (FIG. 4)",level similar to that of the positive control; also recorded: same or similar to that of a positive control
same,"osteogenic differentiation (degree of coloring, ALP staining)","[1]; 0.5, 1, 2 mM CHP, day 14 of differentiation, compared to negative control (FIG. 3)",remarkably increased degree of coloring; also recorded: osteogenic differentiation and bone modeling were promoted
same,bone mineral density of the femur,"[2]; 1 mg/L of CHP in drinking water, 6 weeks, micro-CT, compared to the ovariectomized group (FIG. 1)",significant increase
same,bone volume fraction (BV/TV),"[2]; 1 mg/L of CHP in drinking water, 6 weeks, micro-CT, compared with positive control risedronate (FIG. 2)",restored to a level similar to that of the positive control
same,effect on bone mineral density and bone volume fraction relative to zinc salt and zinc salt + CHP mixture groups,[2]; CHP alone vs zinc salt-administered group and combined administration group,significantly stronger
same,bone mineral density of a femur,"[2]; CHP alone, ovariectomized animal model, dose not stated (FIG. 1)",significantly increased
same,bone volume fraction of a femur,"[2]; CHP alone, ovariectomized animal model, dose not stated (FIG. 2)",significantly increased
